Test results as given in US11231421B2, “Methods of treating multifocal cancer” (NYMOX CORPORATION, priority 2019, dated 2022).
Where no end group is shown, it is not given here.

Assays:
[1] = tested on: low grade prostate cancer (Gleason grade 6); assay: Clinical study, Example 2: new multifocal with increase Gleason primary pattern in entire prostate; format: in vivo, human; conditions: for % Imp.: new multifocal with increase Gleason primary pattern, entire prostate: vs control active surveillance
Procedure: (§1) In a series of clinical studies a total of 146 men with low grade prostate cancer (Gleason grade 6) were treated in the following manner. Patients were randomized and treated with a transrectal intraprostatic single injection of a composition comprising 2.5 mg FT (n=49), or a composition comprising 15 mg FT (n=48), or were subject to control active surveillance (n=49). After the first follow-up biopsy at 45 days post-randomization, 18 patients in the control active surveillance group crossed over to a single administration of a composition in which 10 patients received 2.5 mg FT, and 8 patients received 15 mg FT. Patients were followed for 5 years including biopsies at baseline, 45 days, 18, 36, and 48 months, and urological evaluations with PSA every 6 months. Patients with Gleason grade increase or who elected surgical or radiotherapeutic intervention exited the study and were still included in the data analysis. Percentage of normal biopsies in the baseline focus quadrant and median tumor grade and volume were assessed; progression was measured by clinical and pathological outcomes including Gleason grade, and Gleason grade primary pattern, in the entire prostate sampled as well as for the treated prostate lobe. Interventions associated with Gleason grade increase as well as total incidence for any conventional surgical intervention (e.g., surgery, radiotherapy, and/or chemotherapy) was assessed.

[2] = tested on: low grade prostate cancer (Gleason grade 6); assay: Clinical study, Example 4: hemi-prostate multifocal cancer with increase in Gleason primary pattern; format: in vivo, human; conditions: for % Imp.: hemi-prostate multifocal cancer with increase in Gleason primary pattern: vs control active surveillance
Procedure: as §1

[3] = tested on: low grade prostate cancer (Gleason grade 6); assay: Clinical study, Example 5: cancer treatment with new multifocal with Gleason upgrade; format: in vivo, human; conditions: for % Imp.: cancer treatment with new multifocal with Gleason upgrade, entire prostate: vs control active surveillance
Procedure: as §1

[4] = tested on: low grade prostate cancer (Gleason grade 6); assay: Clinical study, Example 7: cancer treatment with new multifocal with increased Gleason grade in the hemi-prostate; format: in vivo, human; conditions: for % Imp.: cancer treatment with new multifocal with increased Gleason grade in the hemi-prostate: vs control active surveillance
Procedure: as §1, with “assessed. This example evaluated the percentage of patients who had conventional cancer treatment (e.g., surgery, radiotherapy, and/or chemotherapy), and who and who had multifocal prostate cancer in the lobe (or hemi-prostate) in which the foci were initially treated with Gleason upgrade (cancer treatment with new multifocal with increased Gleason grade in the hemi-prostate).” for “assessed.”

injected areas = assay: Histology of injected areas after treatment; format: in vivo; conditions: up to several weeks after treatment
Text: Use of FT is a preferred embodiment. FT is a new molecular entity which in vitro stimulates caspase pathways (activation of caspases 7, 8, and 10, caspase recruitment domains 6, 11, and 14, and DIABLO), tumor necrosis factor pathways (activation of TNF1, TNFSF6, TNFSF8, TNFSF9, CD70 ligands, and TNFRSF19L, TNFRSF25, TRAF2, TRAF3, TRAF4, TRAF6 receptors), and BCL pathways (activation of BIK, HRK, BCL2L10 and BCL3) in prostate glandular epithelial cells, based on tissue culture genetic array data. […] The apoptotic process leads to typical ultrastructural progressive changes of membranous disruption and swelling, progressively deepening nuclear invaginations with eventual membranous bleb formations and cell death and fragmentation into apoptotic bodies.

[5] = FT 2.5 mg, <=18 mos from treatment
[6] = FT 2.5 mg, <=36 mos from treatment
[7] = FT 2.5 mg, <=48 mos from treatment
[8] = FT 15 mg, <=18 mos from treatment
[9] = FT 15 mg, <=36 mos from treatment
[10] = FT 15 mg, <=48 mos from treatment
[11] = Pooled FT (2.5 mg and 15 mg), <=18 mos from treatment
[12] = Pooled FT (2.5 mg and 15 mg), <=18 mos
[13] = Pooled FT (2.5 mg and 15 mg), <=36 mos from treatment
[14] = Pooled FT (2.5 mg and 15 mg), <=36 mos
[15] = Pooled FT (2.5 mg and 15 mg), <=48 mos from treatment
[16] = Pooled FT (2.5 mg and 15 mg), <=48 mos

fexapotide triflutate (IDQQVLSRIKLEIKRCL; also: trifluoroacetate salt) [FT]
percentage of patients: new multifocal with increase Gleason primary pattern, entire prostate [1, 5]: 0 (p = 0.17) %
% Imp.: new multifocal with increase Gleason primary pattern, entire prostate ([1]; FT 2.5 mg, <=18 mos): 100%
percentage of patients: new multifocal with increase Gleason primary pattern, entire prostate [1, 6]: 0 (p = 0.074) %
% Imp.: new multifocal with increase Gleason primary pattern, entire prostate ([1]; FT 2.5 mg, <=36 mos): 100%
percentage of patients: new multifocal with increase Gleason primary pattern, entire prostate [1, 7]: 0 (p = 0.009) %
% Imp.: new multifocal with increase Gleason primary pattern, entire prostate ([1]; FT 2.5 mg, <=48 mos): 100%
percentage of patients: new multifocal with increase Gleason primary pattern, entire prostate [1, 8]: 2.9%
% Imp.: new multifocal with increase Gleason primary pattern, entire prostate ([1]; FT 15 mg, <=18 mos): 82.6%
percentage of patients: new multifocal with increase Gleason primary pattern, entire prostate [1, 9]: 4.5%
% Imp.: new multifocal with increase Gleason primary pattern, entire prostate ([1]; FT 15 mg, <=36 mos): 82%
percentage of patients: new multifocal with increase Gleason primary pattern, entire prostate [1, 10]: 13.3%
% Imp.: new multifocal with increase Gleason primary pattern, entire prostate ([1]; FT 15 mg, <=48 mos): 62.7%
percentage of patients: new multifocal with increase Gleason primary pattern, entire prostate [1, 11]: 1.4 (p = 0.049) %
% Imp.: new multifocal with increase Gleason primary pattern, entire prostate [1, 12]: 91.6%
percentage of patients: new multifocal with increase Gleason primary pattern, entire prostate [1, 13]: 2.1 (p = 0.0031) %
% Imp.: new multifocal with increase Gleason primary pattern, entire prostate [1, 14]: 91.6%
percentage of patients: new multifocal with increase Gleason primary pattern, entire prostate [1, 15]: 6.5 (p = 0.012) %
% Imp.: new multifocal with increase Gleason primary pattern, entire prostate [1, 16]: 81.8%
percentage of patients: hemi-prostate multifocal cancer with increase in Gleason primary pattern [2, 5]: 0 (p = 0.033) %
% Imp.: hemi-prostate multifocal cancer with increase in Gleason primary pattern ([2]; FT 2.5 mg, <=18 mos): 100%
percentage of patients: hemi-prostate multifocal cancer with increase in Gleason primary pattern [2, 6]: 0 (p = 0.018) %
% Imp.: hemi-prostate multifocal cancer with increase in Gleason primary pattern ([2]; FT 2.5 mg, <=36 mos): 100%
percentage of patients: hemi-prostate multifocal cancer with increase in Gleason primary pattern [2, 7]: 0 (p = 0.037) %
% Imp.: hemi-prostate multifocal cancer with increase in Gleason primary pattern ([2]; FT 2.5 mg, <=48 mos): 100%
percentage of patients: hemi-prostate multifocal cancer with increase in Gleason primary pattern [2, 8]: 2.9%
% Imp.: hemi-prostate multifocal cancer with increase in Gleason primary pattern ([2]; FT 15 mg, <=18 mos): 76.8%
percentage of patients: hemi-prostate multifocal cancer with increase in Gleason primary pattern [2, 9]: 4.5%
% Imp.: hemi-prostate multifocal cancer with increase in Gleason primary pattern ([2]; FT 15 mg, <=36 mos): 79%
percentage of patients: hemi-prostate multifocal cancer with increase in Gleason primary pattern [2, 10]: 6.7%
% Imp.: hemi-prostate multifocal cancer with increase in Gleason primary pattern ([2]; FT 15 mg, <=48 mos): 75.5%
percentage of patients: hemi-prostate multifocal cancer with increase in Gleason primary pattern [2, 11]: 1.4 (p = 0.03) %
% Imp.: hemi-prostate multifocal cancer with increase in Gleason primary pattern [2, 12]: 88.8%
percentage of patients: hemi-prostate multifocal cancer with increase in Gleason primary pattern [2, 13]: 2.2 (p = 0.011) %
% Imp.: hemi-prostate multifocal cancer with increase in Gleason primary pattern [2, 14]: 89.7%
percentage of patients: hemi-prostate multifocal cancer with increase in Gleason primary pattern [2, 15]: 3.4 (p = 0.025) %
% Imp.: hemi-prostate multifocal cancer with increase in Gleason primary pattern [2, 16]: 87.5%
percentage of patients: cancer treatment with new multifocal with Gleason upgrade, entire prostate [3, 5]: 9.8%
% Imp.: cancer treatment with new multifocal with Gleason upgrade, entire prostate ([3]; FT 2.5 mg, <=18 mos): 62.7%
percentage of patients: cancer treatment with new multifocal with Gleason upgrade, entire prostate [3, 6]: 16.7%
% Imp.: cancer treatment with new multifocal with Gleason upgrade, entire prostate ([3]; FT 2.5 mg, <=36 mos): 52.7%
percentage of patients: cancer treatment with new multifocal with Gleason upgrade, entire prostate [3, 7]: 26%
% Imp.: cancer treatment with new multifocal with Gleason upgrade, entire prostate ([3]; FT 2.5 mg, <=48 mos): 48%
percentage of patients: cancer treatment with new multifocal with Gleason upgrade, entire prostate [3, 8]: 5.1 (p = 0.02) %
% Imp.: cancer treatment with new multifocal with Gleason upgrade, entire prostate ([3]; FT 15 mg, <=18 mos): 80.6%
percentage of patients: cancer treatment with new multifocal with Gleason upgrade, entire prostate [3, 9]: 7.1 (p = 0.17) %
% Imp.: cancer treatment with new multifocal with Gleason upgrade, entire prostate ([3]; FT 15 mg, <=36 mos): 79.9%
percentage of patients: cancer treatment with new multifocal with Gleason upgrade, entire prostate [3, 10]: 8.3 (p = 0.003) %
% Imp.: cancer treatment with new multifocal with Gleason upgrade, entire prostate ([3]; FT 15 mg, <=48 mos): 83.4%
percentage of patients: cancer treatment with new multifocal with Gleason upgrade, entire prostate [3, 11]: 7.5 (p = 0.02) %
% Imp.: cancer treatment with new multifocal with Gleason upgrade, entire prostate [3, 12]: 71.5%
percentage of patients: cancer treatment with new multifocal with Gleason upgrade, entire prostate [3, 13]: 12.1 (p = 0.026) %
% Imp.: cancer treatment with new multifocal with Gleason upgrade, entire prostate [3, 14]: 65.7%
percentage of patients: cancer treatment with new multifocal with Gleason upgrade, entire prostate [3, 15]: 17 (p = 0.009) %
% Imp.: cancer treatment with new multifocal with Gleason upgrade, entire prostate [3, 16]: 66%
percentage of patients: cancer treatment with new multifocal with increased Gleason grade in the hemi-prostate [4, 5]: 4.9%
% Imp.: cancer treatment with new multifocal with increased Gleason grade in the hemi-prostate ([4]; FT 2.5 mg, <=18 mos): 69%
percentage of patients: cancer treatment with new multifocal with increased Gleason grade in the hemi-prostate [4, 6]: 10%
% Imp.: cancer treatment with new multifocal with increased Gleason grade in the hemi-prostate ([4]; FT 2.5 mg, <=36 mos): 57.4%
percentage of patients: cancer treatment with new multifocal with increased Gleason grade in the hemi-prostate [4, 7]: 17.4%
% Imp.: cancer treatment with new multifocal with increased Gleason grade in the hemi-prostate ([4]; FT 2.5 mg, <=48 mos): 44.4%
percentage of patients: cancer treatment with new multifocal with increased Gleason grade in the hemi-prostate [4, 8]: 5.1%
% Imp.: cancer treatment with new multifocal with increased Gleason grade in the hemi-prostate ([4]; FT 15 mg, <=18 mos): 67.7%
percentage of patients: cancer treatment with new multifocal with increased Gleason grade in the hemi-prostate [4, 9]: 7.1%
% Imp.: cancer treatment with new multifocal with increased Gleason grade in the hemi-prostate ([4]; FT 15 mg, <=36 mos): 69.8%
percentage of patients: cancer treatment with new multifocal with increased Gleason grade in the hemi-prostate [4, 10]: 8.3%
% Imp.: cancer treatment with new multifocal with increased Gleason grade in the hemi-prostate ([4]; FT 15 mg, <=48 mos): 73.5%
percentage of patients: cancer treatment with new multifocal with increased Gleason grade in the hemi-prostate [4, 11]: 5%
% Imp.: cancer treatment with new multifocal with increased Gleason grade in the hemi-prostate [4, 12]: 68.4%
percentage of patients: cancer treatment with new multifocal with increased Gleason grade in the hemi-prostate [4, 13]: 8.6%
% Imp.: cancer treatment with new multifocal with increased Gleason grade in the hemi-prostate [4, 14]: 63.4%
percentage of patients: cancer treatment with new multifocal with increased Gleason grade in the hemi-prostate [4, 15]: 12.8%
% Imp.: cancer treatment with new multifocal with increased Gleason grade in the hemi-prostate [4, 16]: 59.1%
histological changes in injected areas (injected areas): typical apoptotic changes with positive immunohistochemical staining of markers for apoptosis are found throughout the injected areas
